Experimental data taken from BindingDB's records for doi:10.7270/Q2TX3CTT (Broad Institute, 2010).
Counter-ions that a name gives are not always drawn.

Molecular target: Glycogen synthase kinase-3 beta (Homo sapiens, UniProt P49841)
Assay: concentration-response blocking of human GSK3B – biochemical, luminescence, cell-free homogeneous, retest, dose response (AID 434954)

Sequence of Glycogen synthase kinase-3 beta (P49841 whole entry): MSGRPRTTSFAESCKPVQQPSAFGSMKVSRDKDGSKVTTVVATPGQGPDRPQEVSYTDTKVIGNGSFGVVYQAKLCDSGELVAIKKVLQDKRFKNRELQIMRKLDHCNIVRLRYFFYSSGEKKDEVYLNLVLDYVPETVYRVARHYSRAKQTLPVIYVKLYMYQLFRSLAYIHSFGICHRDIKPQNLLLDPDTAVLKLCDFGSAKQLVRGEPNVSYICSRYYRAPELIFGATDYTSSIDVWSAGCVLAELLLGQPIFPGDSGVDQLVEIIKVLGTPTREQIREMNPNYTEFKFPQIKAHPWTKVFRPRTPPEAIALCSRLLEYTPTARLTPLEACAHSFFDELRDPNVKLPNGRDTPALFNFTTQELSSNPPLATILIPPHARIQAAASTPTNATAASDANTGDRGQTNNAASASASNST

Point of comparison: `O=C(c1ccc(Cl)cc1)c1coc2ccc(O)cc12` [(4-Chloro-phenyl)-(5-hydroxy-benzofuran-3-yl)-methanone], EC50 13.4 µM. Against it:
- Clc1ccc2c(c1)Nc1ccccc1CC2 [3-chloro-10,11-dihydro-5H-dibenzo[b,f]azepine] — higher, > 300 µM
- Cc1ccc(S(=O)(=O)NN=Cc2cn(-c3ccccc3)nc2-c2ccccc2)cc1 [N-[(1,3-diphenylpyrazol-4-yl)methylideneamino]-4-methylbenzenesulfonamide] — higher, > 300 µM
- CCOC(=O)c1cnc2ccc(OC)cc2c1Nc1ccc(N2CCN(C)CC2)cc1 [6-methoxy-4-[4-(4-methyl-1-piperazinyl)anilino]-3-quinolinecarboxylic acid ethyl ester] — 2.5-fold lower, 5.26 µM
- COc1ccc2nc3c(cc2c1)c(NC(=O)C1CCCO1)nn3CC(C)C (stereo unspecified) [N-[6-methoxy-1-(2-methylpropyl)-3-pyrazolo[3,4-b]quinolinyl]-2-oxolanecarboxamide] — 14-fold lower, 0.946 µM
- Cc1ccc2cc(NC(=O)c3cccc(F)c3)ccc2n1 [3-fluoro-N-(2-methyl-6-quinolinyl)benzamide] — higher, > 300 µM
- Cc1ccc(NC(=O)NCCCN2CCCC2=O)cc1C [SMR000677961] — higher, > 300 µM
- COc1ccc(-c2nn(-c3ccccc3)cc2C(=O)O)cc1OC [SMR000124387] — higher, > 300 µM
- Cc1nn(-c2ccccc2)c2c1cc1c(=O)n(C)c(=O)nc-1n2-c1ccccc1F [MLS000769580] — 7.9-fold higher, 106 µM
- CC(C)CNc1nc(N)c([N+](=O)[O-])c(N2CCCCCC2)n1 [6-(azepan-1-yl)-N2-(2-methylpropyl)-5-nitro-pyrimidine-2,4-diamine] — 7.3-fold higher, 98 µM
- COc1cccc(C(=O)c2sc(NC(C)C)nc2N)c1 [MLS000036929] — 41-fold lower, 0.33 µM
- CN(C)c1nc(-c2cccnc2)nc(-c2ccccc2)c1C#N [SMR000549421] — higher, > 300 µM
- COc1ccc2nc(NC(=O)CSc3nnc(N)[nH]3)sc2c1 [MLS001138435] — 4.3-fold lower, 3.11 µM
- O=c1cc(O)cc2oc(-c3ccc(O)c(O)c3)c(O[C@@H]3O[C@H](CO)[C@@H](O)[C@H](O)[C@H]3O)c(O)c1-2 [Quercetin 3-O-beta-D-glucoside] — within 1.5-fold, 15.8 µM
- COc1ccc(-c2cn3c(C)c(C(=O)Nc4ccncc4)sc3n2)cc1 [6-(4-methoxyphenyl)-3-methyl-N-(4-pyridyl)imidazo[2,1-b]thiazole-2-carboxamide] — higher, > 300 µM
- COc1ccc(-n2c(=O)c3c4c(sc3n3c(=S)[nH]nc23)CCC4)cc1 [1-Mercapto-4-(4-methoxy-phenyl)-7,8-dihydro-4H,6H-9-thia-2,3,4,9b-tetraaza-cyclopenta[b]-as-indace n-5-one] — 4.6-fold higher, 61.7 µM
- CCN1CCN(c2cc(C)c3cc(NC(=O)c4cc(OC)cc(OC)c4)ccc3n2)CC1 [N-[2-(4-ethylpiperazin-1-yl)-4-methylquinolin-6-yl]-3,5-dimethoxybenzamide] — higher, > 300 µM
- N#Cc1ccccc1CSc1nnc(Cc2ccccc2)o1 [SMR000297282] — higher, > 300 µM
- CN1CCc2c(sc3c2c(=O)n(-c2ccc(Cl)cc2)c2nncn32)C1 [SMR000042939] — higher, > 300 µM
- NS(=O)(=O)c1cccc(NC(=O)COC(=O)/C(=C/c2cccs2)c2cccs2)c1 [SMR000242820] — higher, > 300 µM
- O=C(CN1C(=O)CCC1=O)Nc1cccc(NC(=O)CN2C(=O)CCC2=O)c1 [2-(2,5-dioxo-1-pyrrolidinyl)-N-[3-[[2-(2,5-dioxo-1-pyrrolidinyl)-1-oxoethyl]amino]phenyl]acetamide] — higher, > 300 µM
- O=C1N=C(NCc2ccccc2)SC1=Cc1ccc(O)cc1 [SMR000217101] — 4.4-fold lower, 3.04 µM
- Cc1cccc(/C=C2/Sc3ccc(C(=O)NCCN4CCCC4)cc3NC2=O)c1 [(2E)-2-[(3-methylphenyl)methylidene]-3-oxidanylidene-N-(2-pyrrolidin-1-ylethyl)-4H-1,4-benzothiazine-6-carboxamide] — 2.1-fold lower, 6.28 µM
- COc1ccccc1N1CCN(C(=O)Cn2nnc(-c3ccncc3)n2)CC1 [SMR000003468] — higher, > 300 µM
- O=C1CC(O)(C(F)(F)F)Oc2c1ccc1ccccc21 (stereo unspecified) [2-oxidanyl-2-(trifluoromethyl)-3H-benzo[h]chromen-4-one] — higher, > 300 µM
- Cc1ccc(C(=O)/[O+]=N/[CH-]c2ccc(N3CCCCC3)c([N+](=O)[O-])c2)cc1 [[(3-nitro-4-piperidin-1-ylphenyl)methylideneamino] 4-methylbenzoate] — higher, > 300 µM
- O=C(Cn1c2ccccc2c(=O)c2ccccc21)Nc1ccccc1F [N-(2-fluorophenyl)-2-(9-oxoacridin-10-yl)acetamide] — higher, > 300 µM
- Cc1nc(C)c(-c2csc(Nc3ccc(C(=O)O)c(O)c3)n2)s1 [4-[[4-(2,4-dimethyl-1,3-thiazol-5-yl)-1,3-thiazol-2-yl]amino]-2-hydroxybenzoic acid] — higher, > 300 µM
- O=[N+]([O-])c1ccccc1Oc1ccc(Cl)c2cccnc12 [MLS000721853] — higher, > 300 µM
- O=C(Nc1ccnc(-c2cccnc2)n1)c1ccc(Cl)c(Cl)c1 [MLS000327684] — higher, > 300 µM
- Cc1ncc(C=C2C(=O)Nc3ccccc32)[nH]1 [3-[(Z)-(2-methyl-1H-imidazol-4-yl)methylidene]-1H-indol-2-one] — higher, > 300 µM
- CC(C)N1CCc2c(sc(NC(=O)CCS(=O)(=O)c3ccccc3)c2C(N)=O)C1 [2-[[3-(benzenesulfonyl)-1-oxopropyl]amino]-6-propan-2-yl-5,7-dihydro-4H-thieno[2,3-c]pyridine-3-carboxamide;hydrochloride] — higher, > 300 µM
- COCCCNc1nc(N)c([N+](=O)[O-])c(Nc2ccccc2OC)n1 [4-N-(2-methoxyphenyl)-2-N-(3-methoxypropyl)-5-nitropyrimidine-2,4,6-triamine] — 58-fold lower, 0.231 µM
- CCN1CCN(c2ccc(S(=O)(=O)N3CCOCC3)cc2NC(=O)c2ccc(Cl)cc2Cl)CC1 [2,4-bis(chloranyl)-N-[2-(4-ethylpiperazin-1-yl)-5-morpholin-4-ylsulfonyl-phenyl]benzamide] — higher, > 300 µM
- CCOC(=O)c1nnn(-c2nonc2N)c1-c1cccs1 [1-(4-amino-1,2,5-oxadiazol-3-yl)-5-thiophen-2-yl-4-triazolecarboxylic acid ethyl ester] — within 1.5-fold, 11.7 µM
- O=c1c2[nH]c3ccccc3c2ncn1C1CCCCC1 [SMR000039546] — higher, > 300 µM
- CCOC(=O)c1cnc2ccccc2c1Nc1ccc(C(=O)O)cc1 [SMR000299060] — higher, > 300 µM
- COc1ccc(C(=O)c2coc3ccc(O)cc23)cc1 [MLS001198628] — within 1.5-fold, 13.2 µM
- CCCn1nc(NC(=O)c2cccs2)c2cc3cccc(C)c3nc21 — higher, > 300 µM
- O=C1Nc2ccc([N+](=O)[O-])cc2C1=NNC1CS(=O)(=O)CC1O (stereo unspecified) [SMR000368316] — 1.7-fold higher, 23 µM
- Nc1nc(NCc2ccccc2)nc(Nc2cccc(F)c2)c1[N+](=O)[O-] [N-Benzyl-N'-(3-fluoro-phenyl)-5-nitro-pyrimidine-2,4,6-triamine] — 8.1-fold higher, 108 µM
- Cc1ccc(-c2nc(Nc3cccc(O)c3)c3ccccc3n2)cc1 [MLS001196546] — higher, > 300 µM
- O=c1cc(-c2ccccc2)c2ccc(O)cc2o1 [7-Hydroxy-4-phenyl-chromen-2-one] — 1.8-fold higher, 24.6 µM
- Cc1c(C(=O)OCCOc2ccccc2)[nH]c2c1C(=O)CCC2 [MLS000090901] — within 1.5-fold, 10.9 µM
- CC1=Nc2ncnn2C(c2c[nH]c3ccccc23)C1C(=O)OC(C)C (stereo unspecified) — 7.4-fold lower, 1.81 µM
- COc1ccc2oc(C)c(C(=O)c3ccc(C)cc3)c2c1 [(5-methoxy-2-methyl-3-benzofuranyl)-(4-methylphenyl)methanone] — higher, > 300 µM
